From PubChem BioAssay (NCI)
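Step 1: Grow cells in 96-well plates. Step 2: Expose to compound for 48 hours at 5 concentrations. Step 3: Interpolate endpoints linearly; if unreached, use highest concentration. The concentration for 50% growth inhibition is given as GI50. TGI: concentration producing complete growth inhibition.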

Assays:
Test in all cases: NCI anticancer screen, dose series, 48 h
[1] = tested on: 786-0 renal
[2] = tested on: A498 renal
[3] = tested on: A549 NSCLC
[4] = tested on: ACHN renal
[5] = tested on: BT-549 breast
[6] = tested on: CAKI-1 renal
[7] = tested on: CCRF-CEM leukemia
[8] = tested on: COLO 205 colon
[9] = tested on: DU-145 prostate
[10] = tested on: EKVX NSCLC
[11] = tested on: HCC-2998 colon
[12] = tested on: HCT-116 colon
[13] = tested on: HCT-15 colon
[14] = tested on: HL-60(TB) leukemia
[15] = tested on: HOP-62 NSCLC
[16] = tested on: HS 578T breast
[17] = tested on: IGROV1 ovarian
[18] = tested on: K-562 leukemia
[19] = tested on: KM12 colon
[20] = tested on: LOX IMVI melanoma
[21] = tested on: M14 melanoma
[22] = tested on: MALME-3M melanoma
[23] = tested on: MCF7 breast
[24] = tested on: MDA-MB-231 breast
[25] = tested on: MDA-MB-435
[26] = tested on: NCI-H226 lung
[27] = tested on: NCI-H23 lung
[28] = tested on: NCI-H460 lung
[29] = tested on: NCI-H522 lung
[30] = tested on: NCI/ADR-RES ovarian
[31] = tested on: OVCAR-3 ovarian
[32] = tested on: OVCAR-5 ovarian
[33] = tested on: OVCAR-8 ovarian
[34] = tested on: PC-3 prostate
[35] = tested on: RPMI-8226 leukemia
[36] = tested on: RXF 393 renal
[37] = tested on: SF-268 CNS
[38] = tested on: SF-295 CNS
[39] = tested on: SF-539 CNS
[40] = tested on: SK-MEL-2 melanoma
[41] = tested on: SK-MEL-5 melanoma
[42] = tested on: SK-OV-3 ovarian
[43] = tested on: SN12C renal
[44] = tested on: SNB-19 CNS
[45] = tested on: SW-620 colon
[46] = tested on: T-47D breast
[47] = tested on: TK-10 renal
[48] = tested on: U251 CNS
[49] = tested on: UACC-257 melanoma
[50] = tested on: UACC-62 melanoma
[51] = tested on: UO-31 renal

`O=C(OC(CNc1c(C(=O)c2ccccc2)c(=O)n(Cc2ccccc2)c(=O)n1Cc1ccccc1)CN1CCCCC1)c1ccccc1` (configuration not stated) showed a GI50 [1] of 14.9 µM, a TGI [1] of 29.4 µM and a GI50 [2] of 32.3 µM. The TGI [2] was 76.5 µM, the GI50 [3] was 50.3 µM and the TGI [3] was greater than 100 µM. For the same compound, the GI50 [4] was 30.1 µM, the TGI [4] was greater than 100 µM and the GI50 [5] was 25.5 µM. It also gave a TGI [5] of 82.9 µM, a GI50 [6] of 18.3 µM and a TGI [6] of 35.5 µM. It also gave a GI50 [7] of 16 µM, a TGI [7] of 40 µM and a GI50 [8] of 19.6 µM. It also gave a TGI [8] of 47.8 µM, a GI50 [9] of 29.3 µM and a TGI [9] of 80.9 µM. The GI50 [10] was 38.3 µM, the TGI [10] was greater than 100 µM and the GI50 [11] was 12.1 µM. The TGI [11] was 24.4 µM, the GI50 [12] was 14.9 µM and the TGI [12] was 28.1 µM. For the same compound, the GI50 [13] was 13.5 µM, the TGI [13] was 26.3 µM and the GI50 [14] was 14.8 µM. The TGI [14] was 33.8 µM, the GI50 [15] was 18 µM and the TGI [15] was 33.6 µM. It also gave a GI50 [16] of 42 µM, a TGI [16] greater than 100 µM and a GI50 [17] of 17.4 µM. For the same compound, the TGI [17] was 36.9 µM, the GI50 [18] was 14.9 µM and the TGI [18] was 31.3 µM. For the same compound, the GI50 [19] was 19.9 µM, the TGI [19] was 40.2 µM and the GI50 [20] was 12.8 µM. The TGI [20] was 25.4 µM, the GI50 [21] was 16.3 µM and the TGI [21] was 31.1 µM. The GI50 [22] was 18.5 µM, the TGI [22] was 40.7 µM and the GI50 [23] was 20.7 µM. The TGI [23] was 39.4 µM, the GI50 [24] was 17.6 µM and the TGI [24] was 32.4 µM. For the same compound, the GI50 [25] was 18.5 µM, the TGI [25] was 37.7 µM and the GI50 [26] was 67.2 µM. It also gave a TGI [26] greater than 100 µM, a GI50 [27] of 18.5 µM and a TGI [27] of 39.2 µM. It also gave a GI50 [28] of 21.1 µM, a TGI [28] of 46.7 µM and a GI50 [29] of 21.1 µM. The TGI [29] was 40.7 µM, the GI50 [30] was 17.6 µM and the TGI [30] was 34.5 µM. For the same compound, the GI50 [31] was 18 µM, the TGI [31] was 35.2 µM and the GI50 [32] was 24.7 µM. For the same compound, the TGI [32] was 63.4 µM, the GI50 [33] was 18.3 µM and the TGI [33] was 39.7 µM. It also gave a GI50 [34] of 13.1 µM, a TGI [34] of 26.4 µM and a GI50 [35] of 13.8 µM. The TGI [35] was 31.8 µM, the GI50 [36] was 14.7 µM and the TGI [36] was 29.5 µM. For the same compound, the GI50 [37] was 24.1 µM, the TGI [37] was 53.2 µM and the GI50 [38] was 22.1 µM. For the same compound, the TGI [38] was 42.5 µM, the GI50 [39] was 21.7 µM and the TGI [39] was 42.2 µM. The GI50 [40] was 19.1 µM, the TGI [40] was 34.8 µM and the GI50 [41] was 18.2 µM. For the same compound, the TGI [41] was 42.5 µM, the GI50 [42] was 37.6 µM and the TGI [42] was greater than 100 µM. It also gave a GI50 [43] of 19.3 µM, a TGI [43] of 36.9 µM and a GI50 [44] of 30.4 µM. It also gave a TGI [44] of 83.5 µM, a GI50 [45] of 35.7 µM and a TGI [45] greater than 100 µM. It also gave a GI50 [46] greater than 100 µM, a TGI [46] greater than 100 µM and a GI50 [47] of 23.6 µM. It also gave a TGI [47] of 71.6 µM, a GI50 [48] of 15.2 µM and a TGI [48] of 29 µM. It also gave a GI50 [49] of 15.1 µM, a TGI [49] of 32.5 µM and a GI50 [50] of 20.7 µM. The TGI [50] was 42.4 µM, the GI50 [51] was 16.7 µM and the TGI [51] was 36 µM.
